# Read-outs that look alike come from different tables or passages of the source. Positions of bridges follow the written chain, without caps; N, C: chain ends. Residues, ends and D or L forms follow the SMILES beside them. *: point of attachment. For = O=C*
# Key:
# [1] = system: Madin Darby canine kidney (MDCK) cells; format: cell-based; settings: for EC50, decrease of electrical resistance across MDCK cell monolayer: 18 hours
# Experimental: Yet another assay evaluates the effect of a modulating agent on the electrical resistance across a monolayer of cells. For example, Madin Darby canine kidney (MDCK) cells can be exposed to the modulating agent dissolved in medium (e.g., at a final concentration of 0.5 mg/ml for a period of 24 hours). The effect on electrical resistance can be measured using standard techniques. This assay evaluates the effect of a modulating agent on tight junction formation in epithelial cells. In general, the presence of 500 μg/mL modulating agent should result in a statistically significant decrease in electrical resistance after 24 hours.
# Madin Darby canine kidney (MDCK) cells were plated in Millicells (Millipore, Bedford, Mass.), at a density of 300,000 cells per Millicell, and cultured in Dulbecco's Modified Eagle Medium (DMEM; Sigma, St. Louis, Mo.) containing 5% fetal calf serum (Sigma, St. Louis, Mo.) until monolayers formed. Monolayers were exposed to the modulating agent dissolved in medium. The electrical resistance was measured using the EVOM device (World Precision Instruments, Sarasota, Fla.). At the time of measurement, fresh medium, with or without the modulating agent, may be added to the Millicells.
# chick N-cadherin = target: T1, chick N-cadherin (Gallus gallus, UniProt P10288); assay: Neurite outgrowth of rat cerebellar neurons on N-cadherin expressing 3T3 monolayers (Example 15); format: cell-based; settings: for inhibition at 250 µg/mL / inhibition of N-cadherin dependent neurite outgrowth (in words): 250 μg/mL; for inhibition at 250 µg/mL / inhibition at 125 µg/mL: 16-18 hours, read-out: % Inhibition of N-Cadherin Dependent Neurite Outgrowth; for inhibition at 125 µg/mL: 125 μg/mL; for inhibitory activity on N-cadherin dependent neurite outgrowth, structure/activity statements: Tables 8 and 9; for activity on N-cadherin dependent neurite outgrowth (in words): 125 micrograms/mL or below; for reduction in inhibitory activity on flanking HAV with E-cadherin amino acids: 250 μg/mL (Table 8)
# T1 construct: expressed in transfected cells; host or cells: 3T3 fibroblasts (monolayer); rat post-natal day 2-3 cerebellar neurons plated on top
# T1 sequence (P10288 165-912): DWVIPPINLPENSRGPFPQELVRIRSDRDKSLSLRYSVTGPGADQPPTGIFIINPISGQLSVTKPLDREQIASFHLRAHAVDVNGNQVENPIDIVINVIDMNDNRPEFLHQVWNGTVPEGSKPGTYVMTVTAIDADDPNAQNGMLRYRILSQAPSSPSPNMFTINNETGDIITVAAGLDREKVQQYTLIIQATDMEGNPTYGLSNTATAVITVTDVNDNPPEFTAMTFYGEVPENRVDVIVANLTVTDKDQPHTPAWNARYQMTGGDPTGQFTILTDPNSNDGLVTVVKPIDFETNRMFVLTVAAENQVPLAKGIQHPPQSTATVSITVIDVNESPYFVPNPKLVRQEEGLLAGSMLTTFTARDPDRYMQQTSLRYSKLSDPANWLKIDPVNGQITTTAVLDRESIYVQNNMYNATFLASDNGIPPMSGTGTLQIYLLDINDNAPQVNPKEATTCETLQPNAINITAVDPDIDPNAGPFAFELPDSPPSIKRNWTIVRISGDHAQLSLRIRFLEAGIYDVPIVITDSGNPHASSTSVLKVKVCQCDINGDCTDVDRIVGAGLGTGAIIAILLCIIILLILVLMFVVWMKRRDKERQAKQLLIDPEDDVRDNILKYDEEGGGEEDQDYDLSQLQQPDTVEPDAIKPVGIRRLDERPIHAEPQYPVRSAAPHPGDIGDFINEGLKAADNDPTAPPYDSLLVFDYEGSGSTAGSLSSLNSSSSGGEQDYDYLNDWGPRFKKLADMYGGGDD
# Experimental: Cell culture and neurite outgrowth assays. Co-cultures of cerebellar neurons on monolayers of control 3T3 cells and monolayers of transfected 3T3 cells that express physiological levels of chick N-cadherin or human L1 were established as previously described (Williams et al., Neuron 13:583-594, 1994). In brief, 80,000 3T3 cells (control and transfected) were plated into individual chambers of an eight-chamber tissue culture slide coated with polylysine and fibronectin and cultured in DMEM/10% FCS. After 24 hours, when confluent monolayers had formed, the medium was removed and 3000 cerebellar neurons isolated from post-natal day 2-3 rats were plated into each well in SATO media (Doherty et al., Nature 343:464-466, 1990) supplemented with 2% FCS. All of the test peptides were added immediately before the neurons as a 2× stock prepared in SATO/2% FCS. The co-cultures were maintained for 16-18 hours, at which time they were fixed and immunostained for GAP-43 which is present only in the neurons and delineates the neuritic processes. The mean length of the longest neurite per cell was measured for 150-200 neurons sampled in replicate cultures as previously described (Williams et al., Neuron 13:583-594, 1994). […] Dose-response curves were evaluated and the EC50 values determined.
# PC-3 [2] = assay: Cytotoxicity, MTT assay, PC-3; format: cell-based, human
# Experimental: (§1) N—Ac-CHAVC-NH2 (SEQ ID NO:10) and the control peptide N—Ac-CHGVC-NH2 (SEQ ID NO:11) were evaluated for possible cytotoxic effects on human microvascular endothelial (HMVEC; Clonetics), human umbilical vein endothelial (HUVEC; ATCC #CRL-1730), IAFp2 (human fibroblast cell line; Institute Armand-Frapier, Montreal, Quebec), WI-38 (human fibroblast cell line; ATCC #CCL-75), MDA-MB231 (human breast cancer cell line; ATCC #HTB-26), and PC-3 (human prostate cancer cell line; ATCC #CRL-1435) cells utilizing the MTT assay (Plumb et al., Cancer Res. 49:4435-4440, 1989). Neither of the peptides was cytotoxic at concentrations up to and including 100 μM. Similarly, neither of the peptides was capable of inhibiting the proliferation of the above cell lines at concentrations up to 100 μM, as judged by ^3H-thymidine incorporation assays.
# MDA-MB231 [3] = assay: Cytotoxicity, MTT assay, MDA-MB231; format: cell-based, human
# Experimental: as §1
# HUVEC = format: cell-based, human; settings: 3 h
# Experimental: as §1
# HMVEC = format: cell-based, human; settings: 3 h
# Experimental: as §1
# IAFp2 = format: cell-based, human; settings: 3 h
# Experimental: as §1
# PC-3 [4] = format: cell-based, human; settings: 3 h
# Experimental: as §1
# WI-38 = format: cell-based, human; settings: 3 h
# Experimental: as §1
# MDA-MB231 [5] = format: cell-based, human; settings: 3 h
# Experimental: as §1
# N-cadherin = target: T2, N-cadherin (Gallus gallus, UniProt P10288); assay: Neurite outgrowth inhibition, rat neurons (Example 21); format: cell-based; settings: 500 μg/mL
# T2 construct: expressed in transfected cells; host or cells: 3T3 fibroblasts (monolayer)
# T2 sequence (P10288 165-912): T1 sequence (P10288 165-912)
compound,measurement,setting,value
CC(C)[C@@H]1NC(=O)[C@H](C)NC(=O)[C@H](Cc2c[nH]cn2)NC(=O)[C@@H](NS(C)(=O)=O)CSSC[C@@H](C(N)=O)NC1=O [CH3—SO2—NH—CHAVC—NH2],effect on electrical resistance across MDCK cells (in words),[1],complete loss of activity
same,"EC50, decrease of electrical resistance across MDCK cell monolayer",[1],INACTIVE
same,inhibition at 250 µg/mL,chick N-cadherin,74.7 ± 10.5%
CC(C)[C@@H]1NC(=O)[C@H](C)NC(=O)[C@H](Cc2c[nH]cn2)NC(=O)[C@@H](NC=O)CSSC[C@@H](C(=O)N[C@@H](CO)C(N)=O)NC1=O [H—C(O)—NH—CHAVCS—NH2] (For-CHAVCS-NH2; disulfide 1-5 (inferred)),inhibition at 250 µg/mL,chick N-cadherin,75.8 ± 5.6%
CC(=O)N[C@H]1CSSC[C@@H](C(N)=O)NC(=O)[C@H](CC(=O)O)NC(=O)[C@H](C(C)C)NC(=O)CNC(=O)[C@H](Cc2c[nH]cn2)NC(=O)[C@H](C)NC1=O [N—Ac—CAHGVDC—NH2] (Ac-CAHGVDC-NH2; disulfide 1-7),IC50,PC-3 [2],> 100 µM
same,IC50,MDA-MB231 [3],> 100 µM
same,IC50,HUVEC,> 100 µM
same,IC50,HMVEC,> 100 µM
same,IC50,IAFp2,> 100 µM
same,IC50,PC-3 [4],> 100 µM
same,IC50,WI-38,> 100 µM
same,IC50,MDA-MB231 [5],> 100 µM
CC(=O)N[C@H]1CSSC[C@@H](C(N)=O)NC(=O)[C@@H]2CCCN2C(=O)[C@H](C(C)C)NC(=O)[C@H](C)NC(=O)[C@H](Cc2c[nH]cn2)NC1=O [N—Ac—CHAVPC—NH2] (Ac-CHAVPC-NH2; disulfide 1-6),inhibition at 125 µg/mL,chick N-cadherin,58 ± 4.3%
same,"inhibitory activity on N-cadherin dependent neurite outgrowth, structure/activity statements",chick N-cadherin,potent inhibitors
CC(=O)N[C@H]1CSSC[C@@H](C(N)=O)NC(=O)[C@H](Cc2ccc(O)cc2)NC(=O)[C@H](C(C)C)NC(=O)[C@H](C)NC(=O)[C@H](Cc2c[nH]cn2)NC1=O [N—Ac—CHAVYC—NH2] (Ac-CHAVYC-NH2; disulfide 1-6),inhibition at 125 µg/mL,chick N-cadherin,64.9 ± 1.9%
same,inhibition at 250 µg/mL,chick N-cadherin,64.9%
same,"inhibitory activity on N-cadherin dependent neurite outgrowth, structure/activity statements",chick N-cadherin,potent inhibitors
CC(=O)N[C@H]1CSSC[C@@H](C(N)=O)NC(=O)[C@H](Cc2c[nH]cn2)NC(=O)CNC(=O)[C@H](C(C)C)NC1=O [N—Ac—CVGHC—NH2] (Ac-CVGHC-NH2; disulfide 1-5),IC50,PC-3 [2],> 100 µM
same,IC50,MDA-MB231 [3],> 100 µM
same,IC50,HUVEC,30 µM
same,IC50,HMVEC,> 100 µM
same,IC50,IAFp2,> 100 µM
same,IC50,PC-3 [4],> 100 µM
same,IC50,WI-38,> 100 µM
same,IC50,MDA-MB231 [5],> 100 µM
"N—Ac-LRAHAVDING-NH2: linear 10-mer, SEQ ID NO:79 [reference compound]",% inhibition of N-cadherin dependent neurite outgrowth,chick N-cadherin,68.8+/−4.1%
"N—Ac—CAHAVC—NH2: cyclic peptide, SEQ ID NO:22 (Ac-CAHAVC-NH2; disulfide 1-6 (inferred))",inhibition of N-cadherin dependent neurite outgrowth (in words),chick N-cadherin,potent inhibitors of neurite outgrowth
same,activity on N-cadherin dependent neurite outgrowth (in words),chick N-cadherin,lost activity
same,"inhibitory activity on N-cadherin dependent neurite outgrowth, structure/activity statements",chick N-cadherin,little affect
"N—Ac—CHAVCE—NH2: cyclic peptide, SEQ ID NO:92 (Ac-CHAVCE-NH2; disulfide 1-5 (inferred))","EC50, decrease of electrical resistance across MDCK cell monolayer",[1],INACTIVE
"N—Ac—CHAVDINGC—NH2: cyclic peptide, SEQ ID NO:76 (Ac-CHAVDINGC-NH2; disulfide 1-9 (inferred))","inhibitory activity on N-cadherin dependent neurite outgrowth, structure/activity statements",chick N-cadherin,completely abrogates activity
"N—Ac—CHAVSSC—NH2: cyclic peptide, SEQ ID NO:44 (Ac-CHAVSSC-NH2; disulfide 1-7 (inferred))","EC50, decrease of electrical resistance across MDCK cell monolayer",[1],INACTIVE
same,reduction in inhibitory activity on flanking HAV with E-cadherin amino acids,chick N-cadherin,substantial
N—Ac—CLFSHAVC—NH2 (Ac-CLFSHAVC-NH2; disulfide 1-8 (inferred)),effect on electrical resistance across MDCK cells (in words),[1],loss of activity in this assay
same,"EC50, decrease of electrical resistance across MDCK cell monolayer",[1],INACTIVE
"N—Ac—CLRAHAVC—NH2: cyclic peptide, SEQ ID NO:30 (Ac-CLRAHAVC-NH2; disulfide 1-8 (inferred))","inhibitory activity on N-cadherin dependent neurite outgrowth, structure/activity statements",chick N-cadherin,detrimental affect
"N—Ac—CLRAHAVDC—NH2: cyclic peptide, SEQ ID NO:32 (Ac-CLRAHAVDC-NH2; disulfide 1-9 (inferred))",inhibition of N-cadherin dependent neurite outgrowth (in words),chick N-cadherin,potent inhibitors of neurite outgrowth
same,activity on N-cadherin dependent neurite outgrowth (in words),chick N-cadherin,lost activity
same,"inhibitory activity on N-cadherin dependent neurite outgrowth, structure/activity statements",chick N-cadherin,partial recovery of activity
"N—Ac—CRAHAVDC—NH2: cyclic peptide, SEQ ID NO:28 (Ac-CRAHAVDC-NH2; disulfide 1-8 (inferred))","inhibitory activity on N-cadherin dependent neurite outgrowth, structure/activity statements",chick N-cadherin,completely eliminated inhibitory activity
same,inhibition of neurite outgrowth,N-cadherin,(inhibition observed
"N—Ac—CSHAVSC—NH2: cyclic peptide, SEQ ID NO:40 (Ac-CSHAVSC-NH2; disulfide 1-7 (inferred))","EC50, decrease of electrical resistance across MDCK cell monolayer",[1],INACTIVE
same,reduction in inhibitory activity on flanking HAV with E-cadherin amino acids,chick N-cadherin,complete
